The test system of this experiment is human melanocytes of the SKMel type. Nature of the experiment: Depigmentation: melanin production by melanocytes in culture, melanin content by spectrophotometry. The format is cell-based. To be noted: for Eff./Ref. to 5 μM (relative activity with respect to kojic acid at the same concentration): kojic acid = 1; for activity at 5 µM: SK-MEL3, 72 h, read-out: Resid. Pig. (%) (percentage of residual pigmentation); for residual pigmentation percentage: 100 μM. The procedure:
Various synthesized molecules were tested in order to determine their depigmenting power. The idea was to evaluate the effect of each of them on the production of melanin by melanocytes maintained in a culture medium.
For these tests, 2 lines of melanocytes were cultivated, human melanocytes of the SKMel type on the one hand and a murine line of the B16F10 type on the other hand. Here, we only show the results obtained on the human line.
The melanin content was determined by spectrophotometry, after 3 days of incubation in the presence of the molecule to be tested and cell lysis.
Kojic acid, a well-known depigmenting agent is used as a reference for making a hierarchy of the results.
For each measurement, the analyses were repeated. The indicated value corresponds to the calculated average. When the experiments are repeated, the average variation coefficient of the residual pigmentation percentage is of the order of 3% (comprised between 1.5% and 6% (for 3 tests).
This list is neither exhaustive nor limiting and the same type of results was obtained for the other molecules.

Where [1] appears, read: 5 μM, human line SKMel, 3 days of incubation, melanin vs control culture (cells alone).

Like-named read-outs stand apart in the source and are kept apart here.

For the compound `CC[S+]([O-])CCCCN=C=S` (stereo not shown), the “Eff./Ref. to 5 μM (relative activity with respect to kojic acid at the same concentration)” value (5 μM, human line SKMel) was determined as 12. Moreover, the activity at 5 µM (Homo sapiens) was 63%.
Turning to `[O-][S+](CCCCN=C=S)c1ccccc1` (stereo not shown), the “Eff./Ref. to 5 μM (relative activity with respect to kojic acid at the same concentration)” value (5 μM, human line SKMel) came to 10. For the same compound, the activity at 5 µM under setting [1] amounted to 71%.
Take `C[S+]([O-])CCCCNC(=S)NCCCC[S+](C)[O-]` (stereo not shown) [Example 9, 1,3-bis-(4-(methylsulfinyl)butyl)-thiourea]: under “5 μM, human line SKMel”, the “Eff./Ref. to 5 μM (relative activity with respect to kojic acid at the same concentration)” value came out at 27. For the setting “human line SKMel”, this compound registered a residual pigmentation percentage of 14%. The activity at 5 µM under setting [1] stood at 20%.
For `CC(=O)CCCCN=C=S`, the “Eff./Ref. to 5 μM (relative activity with respect to kojic acid at the same concentration)” value (5 μM, human line SKMel) stood at 5. In addition, the activity at 5 µM under setting [1] was 84%.
With `C[S+]([O-])CCCCN=C=S` (stereo not shown), the “Eff./Ref. to 5 μM (relative activity with respect to kojic acid at the same concentration)” value (5 μM, human line SKMel) was determined as 22. Also, the activity at 5 µM under setting [1] stood at 34%.
`O=c1cc(CO)occ1O` [kojic acid, Kojic acid, reference compound]: under “5 μM, human line SKMel”, the “Eff./Ref. to 5 μM (relative activity with respect to kojic acid at the same concentration)” value worked out at 1. Also, the residual pigmentation percentage (human line SKMel) came to 73%. In addition, the activity at 5 µM under setting [1] stood at 97%.
On to `C1CCNCC1` [reference compound], for which the “Eff./Ref. to 5 μM (relative activity with respect to kojic acid at the same concentration)” value (5 μM, human line SKMel) stood at 17. Moreover, the activity at 5 µM under setting [1] is 50%.
As for `CS(=O)(=O)CCCCN=C=S`, the “Eff./Ref. to 5 μM (relative activity with respect to kojic acid at the same concentration)” value (5 μM, human line SKMel) came to 15. Also, the activity at 5 µM under setting [1] was found to be 54%.
For the compound `C1COCCN1` [reference compound], the “Eff./Ref. to 5 μM (relative activity with respect to kojic acid at the same concentration)” value (5 μM, human line SKMel) is given as 5. Further, under setting [1], the activity at 5 µM came out at 86%.
The matching figures for `C[S+]([O-])CCCCN` (stereo not shown) [reference compound]: 11 and 67%.

The values above are taken from patent US20130142739A1, “PROCESS FOR THE SYNTHESIS OF ISOTHIOCYANATES AND DERIVATIVES THEREOF AND USES OF SAME” (Auriga International, priority 2010, published 2013).
